The values that follow come from patent US20220226323A1, “ALDOSE REDUCTASE INHIBITORS FOR TREATMENT OF PHOSPHOMANNOMUTASE 2 DEFICIENCY” (Applied Therapeutics, Inc., priority 2019, published 2022).

In one series the test system is PMM2. Briefly: PMM2 enzyme activity in PMM2-CDG patient-derived fibroblasts. Particulars: 50 nM, 24 hours; four PMM2-CDG patient-derived fibroblast lines; vs DMSO-treated mutant cell line. The class given is cell-based, human. On the procedure: Cells were seeded in a 96-well plate, homogenization buffer (20 mM HEPES, 25 mM KCl, 1 mM DTT, 10 μg/ml leupeptin, 10 μg/ml antipain) was added and plates were freeze-thawed at —80° C. twice to lyse cells. Reaction buffer (50 mM HEPES, 5 mM MgCl2, 0.5 mM NADP+, 10 μg/ml yeast glucose-6-phosphate dehydrogenase, 10 μM glucose-1,6-bisphosphate, 10 μg/ml phosphoglucoisomerase, 5.25 μg/ml phosphomannoseisomerase) containing 200 μM mannose-1-phosphate as substrate was then added to the wells of each plate. Plates were incubated at 37° C. for 270 min and absorbance was read at 340 nm at 30, 60, 90, 120, 150, 180, 210, 240 and 270 min by removing the plate from incubation at the respective time points. All incubations were carried out with or without substrate (mannose-1-phosphate) and the difference between the two values was calculated as the enzymatic activity. Enzyme activity was normalized to total lysate protein levels. Enzyme activities of fibroblasts in the absence of an AR inhibitor were determined. […] Following this, enzyme activity was assessed as described above. […] For ease of analysis, the enzyme activity (as represented by NADPH concentration) of each treatment condition was compared with the activity of a baseline, untreated mutant cell line at the last time point.

Series [1] can be described thus: CNS penetration (statement).

Consider `O=C(O)Cc1nn(Cc2nc3cc(C(F)(F)F)ccc3s2)c(=O)c2cscc12` [Compound B], for which the “PMM2 enzyme activity in patient-derived fibroblast cell lines” value in the series on PMM2 was “increased PMM2 enzyme activity in each of the four patient-derived cell lines tested”. The CNS penetration result in series [1] is recorded as “CNS penetrant”.
